In paper PMC6550177, “Statuses of food-derived glutathione in intestine, blood, and liver of rat” (NPJ Science of Food, 2018):
“Also recorded” adds a separate entry of the source. Values belong to the compound of their own block, whether it stands above or below them.

Columns and labels:
[1] = rat
Protocol: (§1) All animals were treated and cared in accordance with the National Institutes of Health’s guidelines for the use of experimental animals. All experimental procedures were approved by the Animal Care Committee of Kyoto Prefectural University (No. KPU260400-260421). Seven-week-old Wister rats (body weight 200–220 g) were housed in a 12-h light-dark cycle and allowed free access to standard rat chow and water. […] The plasma was prepared by centrifugation at 800×g for 10 min at 4 °C. The liver and small intestines were taken from the rats. The intestines were flushed with about 40 mL of cold PBS to remove its contents. The blood in the liver was purged by infusing cold PBS into the portal vein. Samples were stored at −80 °C until use.
(§2) The plasma (100 μL) was mixed with three fold volumes of ethanol. The supernatant and precipitate obtained were harvested by centrifugation at 14,200×g at 4 °C for 10 min. The supernatant was referred to as the low-molecular-weight fraction of the plasma. Aliquots of the low-molecular-weight fraction (300 μL each) were dried under vacuum, and processed using two methods. Some dried aliquots were treated with 50 μL of 5% TCA-2% 2-mercaptoethanol solution for 30 min and used in determining the total glutathione and related peptides. Free and bound-form glutathione were bound to 2-mercaptoethnol.[6] Other dried aliquots of the fraction (300 μL) were treated with 50 μL of 20 mM NEM in PBS for 10 min. Only free glutathione bound to NEM, as NEM has no reducing activity. The reaction was terminated by adding 50 μL of 5% TCA solution. The NEM-treated fraction was used in determination of the reduced-form of glutathione and glutathione disulfide.
(§3) The ethanol precipitate of the plasma was further washed with 200 μL of 75% (v/v) ethanol twice. The residue was collected by centrifugation at 14,200×g at 4 °C. Protein-bound glutathione and related peptides were liberated from the residue by extracting with 100 μL of 5% TCA-2% 2-mercaptoethanol with occasional agitation for 30 min. The supernatant obtained after centrifugation was used to determine the protein-bound form of glutathione and related peptides.[6]
(§4) The 5% TCA–2% 2-mercaptoethanol extracts (50 μL) were dried under vacuum to remove excess amounts of 2-mercaptoethanol; thereafter, 20 μL of an alkaline solution was added to neutralize the extracts and they were again dried under vacuum. The residues were mixed with 20 μL of 20 mM HCl, 60 μL of the sodium borate buffer provided with the AccQ Tag Ultra Derivatization Kit, and 20 μL of 0.3% (w/v) AccQ acetonitrile solution and heated at 50 °C for 10 min to obtain their AccQ derivatives. Then, the reaction mixtures were diluted with adequate amounts of 5 mM sodium phosphate buffer (pH 7.4) containing 10% (v/v) acetonitrile and filtered using a 0.45-μm filter (Cosmonice filter W, Nacalai Tesque). The filtrates were subjected to LC-MS/MS using a 3200 QTRAP system (AB SCIEX, Framingham, MA) as previously described.[6]
(§5) Without 2-mercaptoethanol, the sulfhydryl group of glutathione was conjugated with NEM in PBS. The NEM-glutathione derivative was directly subjected to LC-MS/MS to determine the reduced-form of glutathione. With NEM, glutathione disulfide was conjugated with two molecules of AccQs, and the resultant AccQ derivative of glutathione disulfide was subjected to the LC-MS/MS as described above. Reduced-form glutathione (2 nmol) was added to the ethanol-soluble fraction of plasma from portal blood.

[2] = Food-derived glutathione in washed intestine and liver after oral gavage of 13C-labeled compound (LC-MS/MS); settings: rat
Protocol: Rats were acclimatized for a week, divided into four groups, and were given 1 mL of glutathione-1-^13C (50 mg/kg body weight) or NAC-1-^13C (50 mg/kg body weight) solutions using an oral gavage.
Portions of the thoroughly washed intestines and livers were homogenized in the same weight of PBS using a BioMasher (Nippi, Tokyo, Japan). The obtained homogenates were then mixed with the same volumes of 10% (v/v) TCA-4% (v/v) 2-mercaptoethanol and allowed to stand for 30 min at 25°C. The supernatant was collected and used to determine the total amounts of glutathione and related peptides. Another set of intestines and livers were homogenized in the same volume of PBS containing 20 mM NEM and then allowed to stand for 10 min at 25 °C. The homogenate were further diluted with another three fold volumes of PBS without NEM, and mixed with the same volume of 10% (v/v) TCA. […] The precipitate was washed with the same weight of 10% TCA three times, and the protein-bound form of glutathione was extracted with the same weight of 10% TCA-4% 2-mercaptoethanol as described above.
The 5% TCA–2% 2-mercaptoethanol extracts (50 μL) were dried under vacuum to remove excess amounts of 2-mercaptoethanol; thereafter, 20 μL of an alkaline solution was added to neutralize the extracts and they were again dried under vacuum.
With NEM, glutathione disulfide was conjugated with two molecules of AccQs, and the resultant AccQ derivative of glutathione disulfide was subjected to the LC-MS/MS as described above.

[3] = animals, oral administration; cited from earlier work
[4] = humans, dietary supplementation; cited from earlier work
[5] = oral administration, vs placebo controls; cited from earlier work
in vivo = settings: Wister, rat, po, 50 mg/kg, 60 min after ingestion
Protocol: as §1, §2, §3, §4, §5

[6] = mice, 12 weeks supplementation, 50 mg/kg body weight, preliminary experiment
[7] = oral administration, vs placebo controls; cited from earlier work; remark: listed apart in the source
[8] = patients with non-alcoholic fatty liver disease, oral administration; cited from earlier work
[9] = test system: peroxisome proliferator-activated receptor gamma coactivator 1-alpha (PGC-1α); settings: cited from earlier work

Compound: CC(=O)N[C@@H](CS)[13C](=O)O [NAC, N-acetylcysteine-1-^13C]
NAC-derived glutathione (and fragment peptides) in blood plasma ([1]; oral 50 mg/kg, within 120 min, 50 mg/kg): not detected; also recorded: no significant amounts | Food-derived glutathione in intestines and liver after ingestion of NAC ([2]; oral 50 mg/kg): present

Compound: O=C1O[C@H]([C@@H](O)CO)C(O)=C1O [vitamin C]
Exercise-induced increase of PGC-1α [9]: suppress

Compound: vitamin E
Exercise-induced increase of PGC-1α [9]: suppress

Second part, led by results:

concentration at 60 min (in vivo; Food-derived glutathione level in low-molecular-weight fraction of blood from hepatic portal vein): ~400 nM | concentration at 60 min (in vivo; Food-derived glutathione level in low-molecular-weight fraction of blood from inferior vena cava): < 100 nM | Food-derived glutathione in protein-bound fraction, plasma from portal vein vs inferior vena cava ([1]; after oral glutathione): insignificantly different | Food-derived Cys-Gly, γ-Glu-Cys and glutathione disulfide in the liver without blood [2]: negligible amounts | Food-derived glutathione as share of total glutathione in the liver ([2]; 120 min after administration at 50 mg/kg): approximately 5%
Compound: N[C@@H](CCC(=O)N[C@@H](CS)C(=O)NCC(=O)O)C(=O)O [glutathione, γ-L-glutamyl-L-cysteinyl-glycine]
Liver glutathione level [3]: increase the liver glutathione level | Protein-bound glutathione in the blood plasma [4]: increase | Exercise-induced fatigue [5]: reduce | Liver glutathione levels compared to controls [6]: did not significantly increase | Melanin indices on the skin [7]: reduce melanin indices on the skin | Reduced-form glutathione and glutathione disulfide in low-molecular-weight fraction of plasma from portal vein ([1]; after oral glutathione, LC-MS/MS multi-reaction monitoring): no reduced-form glutathione and glutathione disulfide were detected | Plasma alanine aminotransferase and free fatty acid levels [8]: significantly reduce | PGC-1α / mitochondrial biogenesis ([9]; previous animal experiment): enhances mitochondrial biogenesis by increasing

Food-derived Cys-Gly and γ-Glu-Cys in plasma ([1]; in vivo, po): significant amounts | Food-derived Cys-Gly and γ-Glu-Cys in intestines and liver ([2]; in vivo, po): negligible amounts | Food-derived glutathione content in intestine ([2]; in vivo, po, 50 mg/kg): approximately 60 μmol/kg | Food-derived glutathione content in liver ([2]; in vivo, po, 50 mg/kg): ~300 µmol/kg
Compound: N[C@@H](CCC(=O)N[C@@H](CS)[13C](=O)NCC(=O)O)C(=O)O [glutathione-1-^13C, Glutathione-1-^13C]
Status (form) of food-derived glutathione in blood plasma ([1]; in vivo, po, 50 mg/kg): conjugated with proteins and low-molecular-weight thiol compounds
